Measurements taken from patent US20190338284A1, “COMPLEX FOR DRUG DELIVERY AND STABILIZATION AND PREPARATION METHOD THEREOF” (INTEROLIGO CORPORATION, priority 2016, published 2019).
“Also recorded” adds a separate entry of the source.

Key:
Assay type in all cases: cell-based, human
[1] = tested on: BT-474 and MCF-7 breast cancer cell lines; assay: WST-1 assay of atelocollagen-[ERBB2 aptamer-siRNA conjugate] complex on breast cancer cell lines
Experimental: Cell inhibition efficacy validation of atelcollagen-[ERBB2 aptamer-siRNA conjugate] complex to breast cancer cell lines, i.e., BT-474 and MCF-7, was performed in vitro through WST-1 assay. After treating the breast cancer cell lines with naked ERBB2, atelocollagen-[control aptamer-siRNA conjugate] complex without activity, as well as atelocollagen-[ERBB2 aptamer-siRNA conjugate] complex wherein an effective anticancer agent having excellent anticancer efficacy, that is, siRNA is bound to ERBB2 target aptamer having a cancer cell targeting function, respectively, WST-1 assay was performed.

[2] = tested on: BT-474 and MCF-7 breast cancer cell lines; assay: WST-1 assay of ERBB2 aptamer-siRNA conjugate on breast cancer cell lines
Experimental: In addition, WST-1 assay for the breast cancer cell lines, i.e., BT-474 and MCF-7, was performed. Cell inhibition efficacy validation of ERBB2 aptamer to the breast cancer cell lines was performed in vitro through WST-1 assay. After treating the breast cancer cell lines with a control ERBB2 aptamer without activity, as well as ERBB2 aptamer-siRNA conjugate wherein an effective anticancer agent having excellent anticancer efficacy, that is, siRNA is bound to ERBB2 target aptamer having a cancer cell targeting function, respectively, WST-1 assay was performed.

[3] = tested on: BxPC3, Miapaca-2, Panc-1 and capan-1 pancreatic cancer cell lines; assay: WST-1 assay of aptamer-drug conjugate on pancreatic cancer cell lines; conditions: WST-1, 0.1 to 100 μM, 72 hours; listed as AS1411 aptamer
Experimental: WST-1 assay for pancreatic cancer cell lines, i.e., BxPC3, Miapaca-2, Panc-1 and capan-1 was performed. Cell inhibition efficacy validation of AS1411-Gem conjugate to the pancreatic cancer cell lines was performed in vitro through WST-1 assay. First, a control aptamer CRO in a naked form without being combined with an anticancer agent, AS1411 having a cancer cell-targeting function, as well as CRO-Gem conjugate and AS1411-Gem conjugate which are combined with an anticancer agent effective to pancreatic cancer, i.e., gemcitabine, respectively, were prepared (Table 2).
Experimental procedure: Each of the pancreatic cancer cell lines, that is, B×PC3, Miapaca-2, Panc-1 and capan-1 (ATCC, RPMI+10% FBS), was seeded on a 96-well plate in a cell number of 1 to 2×10^4 cells/well, which was defined by a cell test method to determine an appropriate cell concentration, followed by growing for 1 day. The aptamer and aptamer-drug conjugate were dissolved in PBS, respectively, and were immediately treated in each well at concentrations from 0.1 μM up to 100 μM. The treated cells were incubated in a 5% CO2 incubator for 72 hours, treated with 10 μl of a reagent solution for WST-1 assay (WST-1, Roche), respectively, followed by measuring the absorbance at 440 nm using an ELISA reader (FIG. 13).

| Substance | cell viability and proliferation, comparison of efficacy [1] | cell viability and proliferation, comparison of efficacy [2] | cell viability and proliferation, comparison of efficacy [3] |
| --- | --- | --- | --- |
| ERBB2 aptamer-siRNA conjugate (chain 1 AGCUGUCACAGAGGGGCUACUU; chain 2 GUAGCCCCUCUGUGACAGCUU; siRNA conjugated to ERBB2 aptamer, further chemistry not given here) | much better efficacy than the control group | much better efficacy than the ERBB2 aptamer | – |
| TTTGGTGGTGGTGGTTGTGGTGGTGGTGG (SEQ ID NO: 3) [AS1411] | – | – | much better efficacy than CRO; also recorded: more excellent efficacy than the case of treatment using the original anticancer agent, that is, gemcitabine alone |
